Measured values published in US9434692B2, “Pyrazole derivatives as modulators of the 5-HT2A serotonin receptor useful for the treatment of disorders related thereto” (Arena Pharmaceuticals, Inc., priority 2006, dated 2016).

Tests used:
[1] = test system: diabetic rats; conditions: cited from earlier work; for reduction in saphenous sensory conduction velocity: 14.9% reduction in diabetic rats; for correction of sciatic motor conduction deficit: 19.8% deficit in diabetic rats, range over all three drugs; for reduction in sciatic endoneurial blood flow: 44.7% reduction in diabetic rats
[2] = test system: glaucoma patients; conditions: cited from earlier work
[3] = test system: pain in rats; conditions: cited from earlier work
[4] = test system: diabetic nephropathy; conditions: 24 months of treatment; cited from earlier work
[5] = test system: lower back pain, leg pain and numbness; conditions: humans, lumbar disc herniation; cited from earlier work
[6] = target: human 5-HT2A serotonin receptor (Homo sapiens (Human), UniProt P28223); test: [125I]DOI radioligand binding assay; conditions: 0.5 nM [125I]DOI, COS7 membranes, recombinant human 5-HT2A
Experimental: Compounds of the invention were tested for their ability to bind to a 5-HT2A serotonin receptor clone membrane preparation using a radioligand binding assay. Briefly, COS cells were transiently transfected with a pCMV expression vector containing a human 5-HT2A receptor (for the sequence of the receptor see U.S. Pat. No. 6,541,209, SEQ ID NO:24).
COS7 cells transfected with recombinant human 5-HT2A serotonin receptors were cultured for 48 h post transfection, collected, washed with ice-cold phosphate buffered saline, pH 7.4 (PBS), and then centrifuged at 48,000 g for 20 min at 4° C. The cell pellet was then resuspended in wash buffer containing 20 mM HEPES pH 7.4 and 0.1 mM EDTA, homogenized on ice using a Brinkman polytron, and recentrifuged at 48,000 g for 20 min at 4° C. The resultant pellet was then resuspended in 20 mM HEPES, pH 7.4, homogenized on ice, and centrifuged (48,000 g for 20 min at 4° C.). Crude membrane pellets were stored at −80° C. until used for radioligand binding assays.
Radioligand binding assays for human 5-HT2A serotonin receptor was conducted using the 5-HT2 agonist [^125I]DOI as radioligand. To define nonspecific binding, 10 μM DOI was used for all assays. For competitive binding studies, 0.5 nM [^125I]DOI was used and compounds were assayed over a range of 0.01 nM to 10 μM. Assays were conducted in a total volume of 200 μl in 96-well Perkin Elmer GF/C filter plates in assay buffer (50 mM Tris-HCl, pH 7.4, 0.5 mM EDTA, 5 mM MgCl2, and 10 μM pargyline). Assay incubations were performed for 60 min at room temperature and were terminated by rapid filtration under vacuum pressure of the reaction mixture over Whatman GF/C glass fiber filters presoaked in 0.5% PEI using a Brandell cell harvester. Filters were then washed several times with ice-cold wash buffer (50 mM Tris-HCl, pH 7.4). Plates were then dried at room temperature and counted in a Wallac MicroBeta scintillation counter.

[7] = test system: normal volunteers; test: Afternoon nap model of insomnia in normal volunteers; assay type: in vivo, human
Description: APD125, a potent and selective 5-HT2A serotonin receptor inverse agonist is a member of the genus disclosed in the European Patent EP1558582. […] Sleep onset latency was not decreased by APD125. In the afternoon nap model, APD125 decreased microarousals, the number of sleep stage shifts, and number of awakenings after sleep onset.

[8] = test system: healthy adults; test: Phase 1 trials, waking EEG; assay type: in vivo, human
[9] = test system: JC virus; conditions: cited from earlier work
[10] = test system: heatstroke; conditions: in vivo; cited from earlier work
[11] = test system: spontaneously hypertensive rats; conditions: cited from earlier work
[12] = test system: DOI-induced hypolocomotion; test: Attenuation of DOI-induced hypolocomotion in rats; assay type: in vivo, Sprague-Dawley rats; conditions: compound 1-10 mg/kg p.o., DOI 1 mg/kg s.c.
Experimental: In this example, compounds of the invention were tested for inverse agonist activity by determining whether these compounds could attenuate DOI-induced hypolocomotion in rats in a novel environment. DOI is a potent 5-HT2A/2C receptor agonist that crosses the blood-brain barrier. The standard protocol used is described briefly below.
Male Sprague-Dawley rats weighing between 200-350 g were used for all tests. Rats were housed three to four per cage.
(R)-DOI HCl (C11H16INO2.HCl) was obtained from Sigma-Aldrich, and was dissolved in 0.9% saline. Compounds of the invention were synthesized at Arena Pharmaceuticals Inc., San Diego, Calif., and were dissolved in 100% PEG400. DOI was injected s.c. in a volume of 1 mL/kg, while compounds of the invention were administered p.o. in a volume of 1 mL/kg.
The “Motor Monitor” (Hamilton-Kinder, Poway, Calif.) was used for all activity measurement. This apparatus recorded rears using infrared photobeams. […]
In determining the effects of compounds of the invention on DOI-induced hypoactivity, animals were first injected with vehicle or the compound of the invention (1-10 mg/kg) in their home cages. […] Ten minutes after DOI administration, animals were placed into the activity apparatus and rearing activity was measured for 10 min.
Results (total rears over 10 minutes) were analyzed by t-test. […]

[13] = test system: DOCA-salt induced hypertension; conditions: rats; cited from earlier work

COc1cccc(CCc2ccccc2OCC(CN(C)C)OC(=O)CCC(=O)O)c1 (centres unmarked) [sarpogrelate]
reduction in saphenous sensory conduction velocity [1]: completely reversed
correction of sciatic motor conduction deficit [1]: 82.6-99.7%
reduction in sciatic endoneurial blood flow [1]: completely reversed
intra ocular pressure (IOP) [2]: significantly lower IOP
analgesic effect on thermal induced pain ([3]; intraperitoneal administration): significant analgesic effect
analgesic effect on inflammatory pain ([3]; intrathecal or intraperitoneal administration): significant analgesic effect
urinary albumin excretion level [4]: significantly reduced
treatment of lower back pain, leg pain and numbness associated with sciatica [5]: effective treatment

Cn1cc(Cl)c(C(=O)N2CCN(CCc3ccccc3F)CC2)n1 [Compound 24, (4-Chloro-1-methyl-1H-pyrazol-3-yl)-{4-[2-(2-fluoro-phenyl)-ethyl]-piperazin-1-yl}-methanone]
IC50 [6]: 36 nM

Cc1[nH]nc(C(=O)N2CCN(CC(=O)c3ccc(F)cc3)CC2)c1F [Compound 42, 2-[4-(4-Fluoro-5-methyl-1H-pyrazole-3-carbonyl)-piperazin-1-yl]-1-(4-fluoro-phenyl)-ethanone]
IC50 [6]: 11 nM

COc1ccc(NC(=O)Nc2ccc(F)cc2F)cc1-c1c(Br)cnn1C [APD125]
REM sleep ([7]; human, in vivo): at the expense of REM sleep
microarousals ([7]; human, in vivo): decreased
number of awakenings after sleep onset ([7]; human, in vivo): decreased
number of sleep stage shifts ([7]; human, in vivo): decreased
sleep onset latency ([7]; human, in vivo): not decreased
slow wave sleep and associated parameters ([7]; primarily during the early part of sleep): increased slow wave sleep and associated parameters in a dose-dependent manner
dose of maximal effects on waking EEG [8]: 40 to 80 mg
effects on waking EEG [8]: vigilance-lowering effects
time of peak effects after dosing ([8]; waking EEG): 24 h

O=C(c1ccc(F)cc1)C1CCN(CCn2c(=O)[nH]c3ccccc3c2=O)CC1 [ketanserin]
JC virus infection of human glial cells [9]: inhibited JC virus infection of human glial cells
protection during heatstroke [10]: protect against circulatory shocks, intracranial hypertension, and cerebral ischemia during heatstroke
intra ocular pressure (IOP) [2]: significantly lower IOP
blood pressure [11]: stabilize blood pressure

Cn1nc(C(=O)N2CCN(CC(=O)c3ccc(F)cc3)CC2)cc1C(F)(F)F [Compound 35, 1-(4-Fluoro-phenyl)-2-[4-(1-methyl-5-trifluoromethyl-1H-pyrazole-3-carbonyl)-piperazin-1-yl]-ethanone]
attenuation of DOI-induced hypolocomotion (total rears over 10 minutes) [12]: attenuated DOI-induced hypolocomotion

CN1CCN2c3ccccc3Cc3ccccc3C2C1 (centres unmarked) [Mainserin]
DOCA-salt induced hypertension [13]: prevent DOCA-salt induced hypertension

Cc1[nH]nc(C(=O)N2CCN(CC(=O)c3ccc(F)cc3)CC2)c1Br [Compound 52, 2-[4-(4-Bromo-5-methyl-1H-pyrazole-3-carbonyl)-piperazin-1-yl]-1-(4-fluoro-phenyl)-ethanone]
IC50 [6]: 4.6 nM

CCn1cc(Cl)c(C(=O)N2CCN(CC(=O)c3ccc(F)cc3)CC2)n1 [Compound 7, 2-[4-(4-Chloro-1-ethyl-1H-pyrazole-3-carbonyl)-piperazin-1-yl]-1-(4-fluoro-phenyl)-ethanone]
attenuation of DOI-induced hypolocomotion (total rears over 10 minutes) [12]: attenuated DOI-induced hypolocomotion

Cc1nc2sccn2c(=O)c1CCN1CCC(=C(c2ccc(F)cc2)c2ccc(F)cc2)CC1 [ritanserin]
JC virus infection of human glial cells [9]: inhibited JC virus infection of human glial cells
reduction in saphenous sensory conduction velocity [1]: completely reversed
correction of sciatic motor conduction deficit [1]: 82.6-99.7%
reduction in sciatic endoneurial blood flow [1]: completely reversed

O=CN1CCC(C(=O)NCCN2CCC(=C3c4ccccc4C=Cc4ccccc43)CC2)CC1 [AT-1015]
reduction in saphenous sensory conduction velocity [1]: completely reversed
correction of sciatic motor conduction deficit [1]: 82.6-99.7%
reduction in sciatic endoneurial blood flow [1]: completely reversed

Cn1nc(C(=O)N2CCN(CC(=O)c3ccc(F)cc3)CC2)cc1-c1ccco1 [Compound 66, 1-(4-Fluoro-phenyl)-2-[4-(5-furan-2-yl-1-methyl-1H-pyrazole-3-carbonyl)-piperazin-1-yl]-ethanone]
IC50 [6]: 4.8 nM
